Laboratory results reported in publication PMC6400287 (Cell reports, 2018).

Biological target: T1, REV-ERBα (Homo sapiens, UniProt P20393)
T1 sequence (P20393 1-614): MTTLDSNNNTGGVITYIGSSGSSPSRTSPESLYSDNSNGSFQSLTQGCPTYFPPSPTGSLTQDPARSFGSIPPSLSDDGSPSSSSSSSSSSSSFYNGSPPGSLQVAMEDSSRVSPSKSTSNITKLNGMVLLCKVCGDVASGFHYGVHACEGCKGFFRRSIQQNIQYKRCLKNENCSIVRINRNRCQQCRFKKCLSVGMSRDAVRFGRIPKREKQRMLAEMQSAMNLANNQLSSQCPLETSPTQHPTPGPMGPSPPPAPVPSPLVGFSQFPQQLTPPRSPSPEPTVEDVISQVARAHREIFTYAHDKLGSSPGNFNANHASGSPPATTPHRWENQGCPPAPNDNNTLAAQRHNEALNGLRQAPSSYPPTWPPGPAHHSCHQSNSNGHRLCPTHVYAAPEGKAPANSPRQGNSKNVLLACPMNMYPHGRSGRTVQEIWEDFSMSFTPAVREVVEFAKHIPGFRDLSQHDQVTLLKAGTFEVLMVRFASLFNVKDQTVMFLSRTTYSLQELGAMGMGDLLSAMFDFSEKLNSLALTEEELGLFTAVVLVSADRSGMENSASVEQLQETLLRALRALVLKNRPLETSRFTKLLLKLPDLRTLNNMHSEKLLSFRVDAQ
Assay: cotransfection Il17a+CNS5 luciferase reporter assay in HEK293 cells
Type: cell-based

CCOC(=O)N1CCC(CN(Cc2ccc(Cl)cc2)Cc2ccc([N+](=O)[O-])s2)C1 (stereo not shown) [SR9009]
cotransfection Il17a+CNS5 luciferase reporter assay in HEK293 cells: Both SR9009 and SR12418 dose-dependently inhibited Il17a lucif-erase activity at REV-ERBα and REV-ERBβ
